Results as given in ChEMBL document CHEMBL1268919, “Berberine derivatives, with substituted amino groups linked at the 9-position, as inhibitors of acetylcholinesterase/butyrylcholinesterase” (Bioorg Med Chem Lett, 2010).
pIC50: −log10 of the molar value. Active and inactive are the calls of the source. The calls are words filed in the database; no cut-off is given here.

Legend:
Acetylcholinesterase = Acetylcholinesterase (Electrophorus electricus, UniProt O42275)
Description: Inhibition of electric eel AChE after 15 mins by Ellman's method using acetylcholine as substrate

[1] = target: Acetylcholinesterase (Electrophorus electricus) (UniProt O42275); assay: Mixed-type inhibition of electric eel AChE after 15 mins by Lineweaver-Burke plot analysis
Sequence of Acetylcholinesterase (Electrophorus electricus) (O42275 24-633 limits assumed): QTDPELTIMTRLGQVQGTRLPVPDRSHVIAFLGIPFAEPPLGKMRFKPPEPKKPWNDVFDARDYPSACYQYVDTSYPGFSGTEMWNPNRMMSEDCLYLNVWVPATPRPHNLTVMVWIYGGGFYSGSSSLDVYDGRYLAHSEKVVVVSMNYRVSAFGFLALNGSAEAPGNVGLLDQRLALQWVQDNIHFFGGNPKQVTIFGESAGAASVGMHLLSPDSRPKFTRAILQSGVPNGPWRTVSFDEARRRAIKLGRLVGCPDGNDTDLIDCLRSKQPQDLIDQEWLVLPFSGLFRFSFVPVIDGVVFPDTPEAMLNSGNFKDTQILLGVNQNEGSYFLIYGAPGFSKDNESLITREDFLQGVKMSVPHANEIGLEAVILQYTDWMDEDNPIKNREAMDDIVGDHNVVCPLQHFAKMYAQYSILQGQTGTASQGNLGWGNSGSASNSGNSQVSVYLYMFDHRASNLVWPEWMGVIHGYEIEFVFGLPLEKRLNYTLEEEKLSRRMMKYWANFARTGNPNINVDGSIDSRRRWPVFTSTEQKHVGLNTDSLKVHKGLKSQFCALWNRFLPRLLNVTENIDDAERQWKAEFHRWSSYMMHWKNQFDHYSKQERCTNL

Sequence of Acetylcholinesterase (O42275 whole entry): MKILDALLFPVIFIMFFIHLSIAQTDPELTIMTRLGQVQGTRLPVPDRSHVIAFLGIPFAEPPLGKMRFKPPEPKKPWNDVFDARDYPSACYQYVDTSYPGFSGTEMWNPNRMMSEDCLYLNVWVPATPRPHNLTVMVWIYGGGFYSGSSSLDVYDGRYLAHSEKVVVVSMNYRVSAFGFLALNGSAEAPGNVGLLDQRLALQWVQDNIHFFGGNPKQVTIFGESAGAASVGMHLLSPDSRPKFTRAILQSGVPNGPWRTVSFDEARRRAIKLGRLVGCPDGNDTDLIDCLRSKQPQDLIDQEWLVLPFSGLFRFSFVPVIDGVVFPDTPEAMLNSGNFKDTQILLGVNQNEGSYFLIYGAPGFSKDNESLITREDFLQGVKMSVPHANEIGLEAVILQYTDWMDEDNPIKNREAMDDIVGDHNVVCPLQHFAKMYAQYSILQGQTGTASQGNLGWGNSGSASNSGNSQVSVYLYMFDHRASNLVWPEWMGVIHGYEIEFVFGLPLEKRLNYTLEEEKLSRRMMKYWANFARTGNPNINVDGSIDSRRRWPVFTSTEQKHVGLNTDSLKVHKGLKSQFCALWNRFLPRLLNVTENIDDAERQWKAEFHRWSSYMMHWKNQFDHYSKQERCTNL

Work on CCN(CC)CCCOc1c(OC)ccc2cc3[n+](cc12)CCc1cc2c(cc1-3)OCO2 yielded a pIC50 (Acetylcholinesterase) of 6.98.
With COc1ccc2cc3[n+](cc2c1OCCCN1CCCCC1)CCc1cc2c(cc1-3)OCO2 the pIC50 (Acetylcholinesterase) was 7.28.
COc1ccc2cc3[n+](cc2c1OCCCN1CCOCC1)CCc1cc2c(cc1-3)OCO2 was tested, and the pIC50 (Acetylcholinesterase) was 6.34.
For COc1ccc2cc3[n+](cc2c1OCCCN(C)C)CCc1cc2c(cc1-3)OCO2, the pIC50 (Acetylcholinesterase) was 6.70.
COc1ccc2cc3[n+](cc2c1OCCCO)CCc1cc2c(cc1-3)OCO2 gave a pIC50 (Acetylcholinesterase) of 5.63.
For CCCN(CCC)CCCOc1c(OC)ccc2cc3[n+](cc12)CCc1cc2c(cc1-3)OCO2, the pIC50 (Acetylcholinesterase) was 6.51.
COc1ccc2cc3[n+](cc2c1OCCN(C)C)CCc1cc2c(cc1-3)OCO2 gave a pIC50 (Acetylcholinesterase) of 5.76.
COc1ccc2cc3[n+](cc2c1OCCN1CCOCC1)CCc1cc2c(cc1-3)OCO2 showed a pIC50 (Acetylcholinesterase) of 5.74.
With COc1ccc2cc3[n+](cc2c1OCCCN1CCCC1)CCc1cc2c(cc1-3)OCO2 the pIC50 (Acetylcholinesterase) was 7.03.
With COc1ccc2cc3[n+](cc2c1OCCCNC1CCCCC1)CCc1cc2c(cc1-3)OCO2 the pIC50 (Acetylcholinesterase) was 7.70 and the inhibition [1] was “Active”.
